Laboratory results as given in patent US8173829B2, “Carbamate stereoisomer” (Sunovion Pharmaceuticals Inc., priority 2007, dated 2012).

What was measured:
[1] = target: T1, human recombinant β2 receptors (Homo sapiens, UniProt P07550); assay: β2 radioligand binding assay
T1 construct: expressed in transfected cells; host or cells: CHO cells
Experimental: (§1) βi and β2 Radioligand Binding Assays
(§2) The Ki is calculated from the IC50 and the known KD of the radioligand (Cheng and Prusoff's equation).

adrenergic β1 receptors = target: T2, adrenergic β1 receptors (Cavia porcellus, UniProt H0W3H1); assay: β1 adrenergic activity (functional), positive chronotropic effect in isolated right atria; set-up: species or system Dunkin Hartley Guinea pigs; settings: β1 functional assay, at a concentration of 30 μM
T2 construct: from tissue; host or cells: isolated right atria of Dunkin Hartley guinea pigs
T2 sequence (H0W3H1 1-470): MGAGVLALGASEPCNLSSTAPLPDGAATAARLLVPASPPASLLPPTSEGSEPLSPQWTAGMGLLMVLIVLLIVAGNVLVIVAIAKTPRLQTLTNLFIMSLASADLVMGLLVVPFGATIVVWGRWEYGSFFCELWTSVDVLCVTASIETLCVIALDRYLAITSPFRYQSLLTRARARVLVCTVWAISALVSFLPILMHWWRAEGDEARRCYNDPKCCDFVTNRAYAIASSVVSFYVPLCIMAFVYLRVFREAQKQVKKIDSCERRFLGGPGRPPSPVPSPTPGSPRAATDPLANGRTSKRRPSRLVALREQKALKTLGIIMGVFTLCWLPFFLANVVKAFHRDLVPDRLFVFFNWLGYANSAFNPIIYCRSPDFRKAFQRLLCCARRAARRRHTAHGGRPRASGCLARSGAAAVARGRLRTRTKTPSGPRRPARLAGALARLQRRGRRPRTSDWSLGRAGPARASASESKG

adrenergic β2 receptors = target: T3, adrenergic β2 receptors (Cavia porcellus, UniProt Q8K4Z4); assay: β2 adrenergic activity (functional), relaxation of spontaneous tone of isolated trachea; set-up: species or system Dunkin Hartley Guinea pigs
T3 construct: from tissue; host or cells: isolated trachea of Dunkin Hartley guinea pigs
T3 sequence (Q8K4Z4 whole entry): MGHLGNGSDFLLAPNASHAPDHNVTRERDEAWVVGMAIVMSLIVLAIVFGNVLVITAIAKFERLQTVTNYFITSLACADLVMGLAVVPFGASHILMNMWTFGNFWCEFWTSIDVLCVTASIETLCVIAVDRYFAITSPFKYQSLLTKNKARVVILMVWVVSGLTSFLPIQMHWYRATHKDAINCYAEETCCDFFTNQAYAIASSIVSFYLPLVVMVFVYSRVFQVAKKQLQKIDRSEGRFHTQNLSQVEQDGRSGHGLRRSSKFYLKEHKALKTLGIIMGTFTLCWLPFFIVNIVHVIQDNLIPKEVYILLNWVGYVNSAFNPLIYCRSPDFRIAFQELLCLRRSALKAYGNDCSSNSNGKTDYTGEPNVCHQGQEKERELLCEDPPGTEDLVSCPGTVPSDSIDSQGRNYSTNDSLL

[2] = Stability in aqueous buffered solutions; format: physicochemical
Experimental: Stability in Aqueous Buffered Solutions
Solution Preparations: For each test compound, the following solutions are prepared. • Solution A is prepared from ˜30 mg of the test compound in 150 mL of 0.005 M citrate buffer, pH 5.0 (˜0.2 mg/mL). • Solution B is prepared as follows: approximately 30 mL aliquot of Solution A is transferred to a separated container and the pH of the solution is adjusted to pH 3.0 with 1 N HCl (˜0.2 mL). • Solution C is prepared as follows: approximately 30 mL aliquot of Solution A is transferred to a separated container and the pH of the solution is adjusted to pH ˜8.0 with 1 N NaOH (˜0.2 mL). • Note: Because the volume of 1 N HCl or 1 N NaOH used for adjusting pH was negligible, the concentration of test compound in Solutions A, B and C were the same.
Storage SCHEME • As soon as the above solutions were prepared, aliquots of each solution were transferred into 11 vials, of which 9 vials are stored at −20° C., and one each is stored at 30° C. and 40° C., respectively. • At each interval listed below, two vials are removed from −20° C. storage, and stored at 30° C. and 40° C., respectively. • The corresponding weeks under the storage condition (30° C. or 40° C.) are shown in the table below.
On Week 12, the last vial stored at −20° C. is removed and warmed up to the room temperature, which is the Day 0 Solution.
Sample Analysis: On Week 12, all solutions are assayed by an HPLC method using the Day 0 Solution at pH 5 as a standard solution. The test compounds were assayed by HPLC with UV detection (refer to Table 1 for method conditions).

[3] = target: T4, human recombinant β1 receptors (Homo sapiens, UniProt P08588); assay: β1 radioligand binding assay; settings: β1 receptor
T4 construct: expressed in transfected cells; host or cells: CHO cells
T4 sequence (P08588 whole entry): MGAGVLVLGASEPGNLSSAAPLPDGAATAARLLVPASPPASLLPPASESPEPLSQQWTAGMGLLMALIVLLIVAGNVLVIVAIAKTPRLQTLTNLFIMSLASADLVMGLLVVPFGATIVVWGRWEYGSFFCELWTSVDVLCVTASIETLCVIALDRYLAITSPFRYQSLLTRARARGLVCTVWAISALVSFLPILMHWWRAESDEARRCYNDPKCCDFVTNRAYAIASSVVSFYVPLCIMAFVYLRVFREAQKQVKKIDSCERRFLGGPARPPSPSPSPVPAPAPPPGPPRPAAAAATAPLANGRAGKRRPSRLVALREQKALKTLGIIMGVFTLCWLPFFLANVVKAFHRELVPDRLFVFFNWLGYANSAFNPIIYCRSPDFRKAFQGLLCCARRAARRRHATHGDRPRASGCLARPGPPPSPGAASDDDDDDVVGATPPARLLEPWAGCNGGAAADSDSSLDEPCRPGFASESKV
Experimental: as §1, §2

[4] = target: T5, human recombinant β2 receptors expressed in CHO cells (Homo sapiens, UniProt P07550); assay: Intrinsic activity assessment (β2), cAMP production; format: cell-based; settings: % response relative to a procaterol-induced cAMP increase
T5 construct: expressed in transfected cells; host or cells: CHO cells
T5 sequence (P07550 whole entry): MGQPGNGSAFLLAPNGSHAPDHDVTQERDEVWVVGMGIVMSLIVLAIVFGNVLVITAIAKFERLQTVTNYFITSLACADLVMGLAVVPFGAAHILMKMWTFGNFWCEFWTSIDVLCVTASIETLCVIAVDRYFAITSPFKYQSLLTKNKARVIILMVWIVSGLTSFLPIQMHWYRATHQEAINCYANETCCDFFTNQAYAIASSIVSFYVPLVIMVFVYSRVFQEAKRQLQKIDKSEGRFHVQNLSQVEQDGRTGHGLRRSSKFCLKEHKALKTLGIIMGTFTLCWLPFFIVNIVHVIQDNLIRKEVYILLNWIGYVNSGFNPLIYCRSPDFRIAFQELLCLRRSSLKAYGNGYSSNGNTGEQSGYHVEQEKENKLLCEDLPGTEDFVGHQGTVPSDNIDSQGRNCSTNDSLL
Experimental: Intrinsic Activity Assessment (β2)
The intrinsic activity of a test compound is assessed by evaluating its ability to increase cAMP production from human recombinant β2 receptors expressed in CHO cells. Data are expressed as % response relative to a procaterol-induced cAMP increase.

T1 sequence (P07550 whole entry): as above

Q: Which results are given for `COC(=O)Nc1cc([C@H](O)CN[C@H](C)Cc2ccc(O)cc2)ccc1O` [Example 1, Carbamic acid, [2-hydroxy-5-[(1S)-1-hydroxy-2-[[(1R)-2-(4-hydroxyphenyl)-1-methylethyl]amino]ethyl]-phenyl]-, methyl ester]?
A: β1/β2 binding ratio ([1]; ratio of Ki β1 to Ki β2): > 10; Ki ([1]; β2 receptor, displacement of [3H]-CGP-12177, CHO cells): 990 nM; increase in heart rate (adrenergic β1 receptors): 20%; β1/β2 functional ratio (adrenergic β2 receptors; ratio of EC50 β1 to EC50 β2): > 484; EC50 (adrenergic β2 receptors; β2, isolated trachea, guinea pig): 62 nM; % of Initial Concentration (0.19847 mg/mL) in pH 5.0 ([2]; pH 3.0, 30° C., 0 wk): 98.31%; % of Initial Concentration (0.19847 mg/mL) in pH 5.0 ([2]; pH 3.0, 30° C., 1 wk): 99.95%; % of Initial Concentration (0.19847 mg/mL) in pH 5.0 ([2]; pH 3.0, 30° C., 2 wk): 99.12%; % of Initial Concentration (0.19847 mg/mL) in pH 5.0 ([2]; pH 3.0, 30° C., 4 wk): 100.91%; % of Initial Concentration (0.19847 mg/mL) in pH 5.0 ([2]; pH 3.0, 30° C., 8 wk): 101.16%; % of Initial Concentration (0.19847 mg/mL) in pH 5.0 ([2]; pH 3.0, 30° C., 12 wk): 101.54%; % of Initial Concentration (0.19847 mg/mL) in pH 5.0 ([2]; pH 3.0, 40° C., 0 wk): 98.31%; % of Initial Concentration (0.19847 mg/mL) in pH 5.0 ([2]; pH 3.0, 40° C., 1 wk): 98.87%; % of Initial Concentration (0.19847 mg/mL) in pH 5.0 ([2]; pH 3.0, 40° C., 2 wk): 100.33%; % of Initial Concentration (0.19847 mg/mL) in pH 5.0 ([2]; pH 3.0, 40° C., 4 wk): 105.71%; % of Initial Concentration (0.19847 mg/mL) in pH 5.0 ([2]; pH 3.0, 40° C., 8 wk): 106.72%; % of Initial Concentration (0.19847 mg/mL) in pH 5.0 ([2]; pH 3.0, 40° C., 12 wk): 106.51%; time for which found to be very stable ([2]; pH 3 or 5, stored at 30° C.): at least 12 weeks; % of Initial Concentration (0.19847 mg/mL) in pH 5.0 ([2]; pH 5.0, 30° C., 0 wk): 100.20%; % of Initial Concentration (0.19847 mg/mL) in pH 5.0 ([2]; pH 5.0, 30° C., 1 wk): 99.68%; % of Initial Concentration (0.19847 mg/mL) in pH 5.0 ([2]; pH 5.0, 30° C., 2 wk): 101.08%; % of Initial Concentration (0.19847 mg/mL) in pH 5.0 ([2]; pH 5.0, 30° C., 4 wk): 101.59%; % of Initial Concentration (0.19847 mg/mL) in pH 5.0 ([2]; pH 5.0, 30° C., 8 wk): 105.28%; % of Initial Concentration (0.19847 mg/mL) in pH 5.0 ([2]; pH 5.0, 30° C., 12 wk): 106.61%; % of Initial Concentration (0.19847 mg/mL) in pH 5.0 ([2]; pH 5.0, 40° C., 0 wk): 100.20%; % of Initial Concentration (0.19847 mg/mL) in pH 5.0 ([2]; pH 5.0, 40° C., 1 wk): 100.40%; % of Initial Concentration (0.19847 mg/mL) in pH 5.0 ([2]; pH 5.0, 40° C., 2 wk): 101.07%; % of Initial Concentration (0.19847 mg/mL) in pH 5.0 ([2]; pH 5.0, 40° C., 4 wk): 102.09%; % of Initial Concentration (0.19847 mg/mL) in pH 5.0 ([2]; pH 5.0, 40° C., 8 wk): 104.88%; % of Initial Concentration (0.19847 mg/mL) in pH 5.0 ([2]; pH 5.0, 40° C., 12 wk): 106.74%; % of Initial Concentration (0.19847 mg/mL) in pH 5.0 ([2]; ~pH 8, 30° C., 0 wk): 97.78%; % of Initial Concentration (0.19847 mg/mL) in pH 5.0 ([2]; ~pH 8, 30° C., 1 wk): 69.33%; % of Initial Concentration (0.19847 mg/mL) in pH 5.0 ([2]; ~pH 8, 30° C., 2 wk): 50.77%; % of Initial Concentration (0.19847 mg/mL) in pH 5.0 ([2]; ~pH 8, 30° C., 4 wk): 27.72%; % of Initial Concentration (0.19847 mg/mL) in pH 5.0 ([2]; ~pH 8, 30° C., 8 wk): 6.96%; % of Initial Concentration (0.19847 mg/mL) in pH 5.0 ([2]; ~pH 8, 30° C., 12 wk): 1.24%; % of Initial Concentration (0.19847 mg/mL) in pH 5.0 ([2]; ~pH 8, 40° C., 0 wk): 97.78%; % of Initial Concentration (0.19847 mg/mL) in pH 5.0 ([2]; ~pH 8, 40° C., 1 wk): 30.18%; % of Initial Concentration (0.19847 mg/mL) in pH 5.0 ([2]; ~pH 8, 40° C., 2 wk): 8.85%; % of Initial Concentration (0.19847 mg/mL) in pH 5.0 ([2]; ~pH 8, 40° C., 4 wk): 0.52%; % of Initial Concentration (0.19847 mg/mL) in pH 5.0 ([2]; ~pH 8, 40° C., 8 wk): 0%; % of Initial Concentration (0.19847 mg/mL) in pH 5.0 ([2]; ~pH 8, 40° C., 12 wk): 0%; inhibition at 20 µM ([3]; at a concentration of 20 μM, read-out: inhibition of specific binding): 44%; Ki ([3]; displacement of [125I]-cyanopidolol, CHO cells): > 10000 nM; Emax [4]: 79%
